Series [1] can be described thus: DRUGMATRIX: Phorbol Ester radioligand binding (ligand: [3H] PDBu). Conditions: Not Active = under 50% inhibition at 10 µM. It is filed as cell membranes, Mus musculus, ICR, Brain, Membrane.
In a further series the target is T1, Cytochrome P450 1A2 (Homo sapiens, UniProt P05177). Also: in other assays of this panel Not Active means under 50% inhibition at 10 µM.
T1 sequence (P05177 whole entry): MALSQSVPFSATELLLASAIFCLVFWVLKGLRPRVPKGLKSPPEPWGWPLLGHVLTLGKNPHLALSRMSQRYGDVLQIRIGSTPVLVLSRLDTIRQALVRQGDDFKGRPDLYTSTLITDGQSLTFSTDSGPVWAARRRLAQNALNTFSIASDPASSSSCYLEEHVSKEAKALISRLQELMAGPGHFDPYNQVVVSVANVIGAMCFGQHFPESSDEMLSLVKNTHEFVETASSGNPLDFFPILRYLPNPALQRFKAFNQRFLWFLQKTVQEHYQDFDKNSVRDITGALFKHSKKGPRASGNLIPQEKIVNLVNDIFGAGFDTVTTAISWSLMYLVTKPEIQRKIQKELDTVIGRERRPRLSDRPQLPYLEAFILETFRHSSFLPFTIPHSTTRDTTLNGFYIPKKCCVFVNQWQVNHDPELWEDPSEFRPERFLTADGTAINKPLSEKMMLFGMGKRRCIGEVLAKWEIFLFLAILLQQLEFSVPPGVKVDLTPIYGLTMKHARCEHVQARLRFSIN
Conditions: bti-tn-5b1-4.

The nature of series [2]: DRUGMATRIX: beta-Lactamase enzyme inhibition (substrate: Nitrocefin). Set-up: species or system Bacillus cereus. Conditions: Not Active = under 50% inhibition at 10 µM.
The nature of series [3]: DRUGMATRIX: Glutamate, NMDA, Agonism radioligand binding (ligand: [3H] CGP-39653). Conditions: Not Active = under 50% inhibition at 10 µM. It is filed as cell membranes, Rattus norvegicus, Wistar, Cerebral cortex, Membrane.
Series [4] deals with Matrix metalloproteinase-9 (Homo sapiens, UniProt P14780). Put plainly: biochemical. It is filed as cell-based.
Series [5] in a line: DRUGMATRIX: Phosphodiesterase PDE4 enzyme inhibition (substrate: [3H]cAMP + cAMP). Conditions: u-937, Not Active = under 50% inhibition at 10 µM.
The target in a further series is T2, Estrogen receptor (Homo sapiens, UniProt P03372). Also: in other assays of this panel Not Active means under 50% inhibition at 10 µM.
T2 sequence (P03372 whole entry): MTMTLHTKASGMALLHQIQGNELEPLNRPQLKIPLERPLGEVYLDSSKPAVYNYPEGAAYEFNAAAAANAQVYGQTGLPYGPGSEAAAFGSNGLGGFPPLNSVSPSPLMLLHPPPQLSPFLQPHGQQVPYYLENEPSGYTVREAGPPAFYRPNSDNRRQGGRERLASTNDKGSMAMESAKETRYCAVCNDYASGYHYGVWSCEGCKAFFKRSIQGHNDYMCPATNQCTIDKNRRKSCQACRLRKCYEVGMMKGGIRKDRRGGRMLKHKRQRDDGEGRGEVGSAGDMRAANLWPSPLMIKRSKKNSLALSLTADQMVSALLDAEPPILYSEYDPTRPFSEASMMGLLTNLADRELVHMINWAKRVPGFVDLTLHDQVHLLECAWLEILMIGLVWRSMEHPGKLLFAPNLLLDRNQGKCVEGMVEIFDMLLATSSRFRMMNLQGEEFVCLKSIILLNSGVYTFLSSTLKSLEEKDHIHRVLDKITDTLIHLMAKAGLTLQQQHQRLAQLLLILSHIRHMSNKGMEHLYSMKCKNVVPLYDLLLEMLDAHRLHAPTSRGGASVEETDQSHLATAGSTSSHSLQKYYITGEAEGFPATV
The following applies: sf9.

The next series addresses T3, Caspase-1 (Homo sapiens, UniProt P29466).
T3 sequence (P29466 whole entry): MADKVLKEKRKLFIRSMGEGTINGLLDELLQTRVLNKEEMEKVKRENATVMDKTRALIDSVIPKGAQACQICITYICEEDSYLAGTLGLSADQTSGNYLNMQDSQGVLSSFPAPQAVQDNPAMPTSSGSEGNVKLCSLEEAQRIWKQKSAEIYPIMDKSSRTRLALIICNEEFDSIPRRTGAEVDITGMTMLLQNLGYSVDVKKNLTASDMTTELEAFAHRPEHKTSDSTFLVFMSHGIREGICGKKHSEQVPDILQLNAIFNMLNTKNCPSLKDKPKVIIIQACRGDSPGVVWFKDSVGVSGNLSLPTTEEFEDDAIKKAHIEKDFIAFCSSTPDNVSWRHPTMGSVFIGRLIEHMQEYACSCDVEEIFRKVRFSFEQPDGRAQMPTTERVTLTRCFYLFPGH
Set-up: species or system Escherichia coli.

Series [6] is described as follows: DRUGMATRIX: Purinergic P2X radioligand binding (ligand: [3H] alpha, beta-Methylene-ATP). It is filed as cell membranes, Oryctolagus cuniculus, New Zealand albino, Urinary bladder, Membrane. The following applies: Not Active = under 50% inhibition at 10 µM.

Chain of Matrix metalloproteinase-9 (P14780 whole entry): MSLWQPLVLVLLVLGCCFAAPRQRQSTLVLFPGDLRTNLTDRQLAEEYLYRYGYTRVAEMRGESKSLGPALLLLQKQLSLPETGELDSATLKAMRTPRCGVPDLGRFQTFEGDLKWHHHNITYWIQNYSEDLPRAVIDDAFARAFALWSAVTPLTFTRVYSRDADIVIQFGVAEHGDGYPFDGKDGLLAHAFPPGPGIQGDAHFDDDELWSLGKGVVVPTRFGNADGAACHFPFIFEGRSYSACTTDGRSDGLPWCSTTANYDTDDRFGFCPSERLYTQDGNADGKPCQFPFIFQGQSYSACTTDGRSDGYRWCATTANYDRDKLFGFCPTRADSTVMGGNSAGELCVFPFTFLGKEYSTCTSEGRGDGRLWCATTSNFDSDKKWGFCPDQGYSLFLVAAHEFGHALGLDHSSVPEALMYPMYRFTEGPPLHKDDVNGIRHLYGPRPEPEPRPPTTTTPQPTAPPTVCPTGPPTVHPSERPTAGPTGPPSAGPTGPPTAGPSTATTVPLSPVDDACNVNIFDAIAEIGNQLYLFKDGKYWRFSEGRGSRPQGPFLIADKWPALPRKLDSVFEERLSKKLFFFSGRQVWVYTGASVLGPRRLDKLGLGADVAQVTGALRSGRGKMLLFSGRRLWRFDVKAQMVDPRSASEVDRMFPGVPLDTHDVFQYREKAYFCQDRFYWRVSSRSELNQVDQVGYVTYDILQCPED

For orientation: IC50 means the point on the concentration scale where inhibition reaches its midpoint. As to `CCCCCC[C@H]1C(=O)O[C@H](C)[C@H](NC(=O)c2cccc(NC=O)c2O)C(=O)O[C@@H](C)[C@@H]1OC(=O)CC(C)C` [ANTIMYCIN A], the IC50 result (in series [1]; against Cytochrome P450 1A2; in series [2]; in series [3]; in series [4]; in series [5]) was “Not Active” throughout. Besides, the half-maximal inhibitory concentration (IC50) entry (at Estrogen receptor; against Caspase-1; in [6]) was “Not Active” in each case. Besides, the Ki entry (in [1]; on Cytochrome P450 1A2; in [2]; in [3]; in [5]; in series [6]) was “Not Active” in each case.

Take `CO[C@H]1[C@@H](O)[C@H](N)[C@@H](O[C@H]2O[C@H]([C@H](C)N)CC[C@H]2N)[C@H](O)[C@@H]1N(C)C(=O)CN` [ASTROMICIN]: the IC50 result (in series [1]; against Cytochrome P450 1A2; in [2]; in [3]; in [4]; in series [5]) was “Not Active” in each case. Further, the IC50 entry (at Estrogen receptor; on Caspase-1; in series [6]) was “Not Active” throughout. For the same compound, the Ki entry (in series [1]; on Cytochrome P450 1A2; in series [2]; in series [3]; in series [5]; in [6]) was “Not Active” in each case.

As to `CC[C@H]1OC(=O)[C@H](C)[C@@H](O[C@H]2C[C@@](C)(OC)[C@@H](O)[C@H](C)O2)[C@H](C)[C@@H](O[C@@H]2O[C@H](C)C[C@H](N(C)C)[C@H]2O)[C@](C)(O)C[C@@H](C)CN(C)[C@H](C)[C@@H](O)[C@]1(C)O` [AZITHROMYCIN], the IC50 entry (in [1]; against Cytochrome P450 1A2; in [2]; in series [3]; in series [4]; in series [5]) was “Not Active” each time. Further, the IC50 entry (at Estrogen receptor; on Caspase-1; in [6]) was “Not Active” throughout. The Ki entry (in [1]; at Cytochrome P450 1A2; in series [2]; in series [3]; in [5]; in [6]) was “Not Active” throughout.

For `CC(C)(C)c1ccc(S(=O)(=O)/C=C/C#N)cc1` [BAY-11-7085], the IC50 entry (in series [1]; on Cytochrome P450 1A2; in series [2]; in series [3]; in series [4]; in series [5]) was “Not Active” in each case. For the same compound, the half-inhibitory concentration (IC50) entry (against Estrogen receptor; against Caspase-1; in [6]) was “Not Active” throughout. Besides, the Ki entry (in [1]; on Cytochrome P450 1A2; in series [2]; in series [3]; in series [5]; in series [6]) was “Not Active” throughout.

As to `CCc1oc2ccccc2c1C(=O)c1cc(Br)c(O)c(Br)c1` [BENZBROMARONE], the IC50 result is “Not Active” in [1]; “Not Active” on Cytochrome P450 1A2; “Not Active” in series [2]; “Not Active” in series [3]; “Not Active” in series [4]; 1.06 µM in series [5] (read-out: IC50). For the same compound, the IC50 entry (against Estrogen receptor; against Caspase-1; in series [6]) was “Not Active” each time. For the same compound, the Ki entry (in series [1]; at Cytochrome P450 1A2; in series [2]; in [3]; in series [6]) was “Not Active” each time.

For the compound `O=c1cc(-c2ccccc2)oc2ccc3ccccc3c12` [BETA-NAPHTHOFLAVONE], the half-inhibitory concentration (IC50) entry (in [1]; on Cytochrome P450 1A2; in series [2]; in series [3]; in series [4]; in series [5]) was “Not Active” in each case. In addition, the IC50 result (against Estrogen receptor; on Caspase-1; in [6]) was “Not Active” throughout. The Ki entry (in series [1]; at Cytochrome P450 1A2; in series [2]; in [3]; in [5]; in series [6]) was “Not Active” in each case.

In the case of `CS(=O)(=O)OCCCCOS(C)(=O)=O` [BUSULFAN], the IC50 entry is “Not Active” in [1]; “Not Active” against Cytochrome P450 1A2; “Not Active” in [2]; “Not Active” in series [3]; 5.21 µM in series [4] (read-out: IC50); “Not Active” in series [5]. Moreover, the IC50 result (against Estrogen receptor; at Caspase-1; in [6]) was “Not Active” in each case. In addition, the Ki entry (in series [1]; on Cytochrome P450 1A2; in series [2]; in series [3]; in series [5]; in series [6]) was “Not Active” throughout.

As for `NC(=O)N1c2ccccc2C=Cc2ccccc21` [CARBAMAZEPINE], the IC50 result (in [1]; against Cytochrome P450 1A2; in [2]; in series [3]; in [4]; in [5]) was “Not Active” each time. Besides, the IC50 entry (against Estrogen receptor; at Caspase-1; in series [6]) was “Not Active” each time. Moreover, the Ki entry (in series [1]; on Cytochrome P450 1A2; in [2]; in [3]; in series [5]; in [6]) was “Not Active” in each case.

As for `CCOC(=O)n1ccn(C)c1=S` [CARBIMAZOLE], the IC50 result (in series [1]; against Cytochrome P450 1A2; in series [2]; in [3]; in series [4]; in [5]) was “Not Active” each time. Besides, the IC50 result (against Estrogen receptor; on Caspase-1; in series [6]) was “Not Active” in each case. Besides, the Ki result (in series [1]; on Cytochrome P450 1A2; in series [2]; in series [3]; in [5]; in series [6]) was “Not Active” each time.

As to `CO[C@@]1(NC(=O)CSCC#N)C(=O)N2C(C(=O)O)=C(CSc3nnnn3C)CS[C@@H]21` [CEFMETAZOLE], the IC50 entry (in series [1]; against Cytochrome P450 1A2; in series [2]; in series [3]; in series [4]; in [5]) was “Not Active” each time. The IC50 result (against Estrogen receptor; on Caspase-1; in series [6]) was “Not Active” each time. For the same compound, the Ki entry (in series [1]; at Cytochrome P450 1A2; in series [2]; in series [3]; in series [5]; in series [6]) was “Not Active” each time.
